# Assay results: paper PMC6154683, “High-Throughput Determination of Sodium Danshensu in Beagle Dogs by the LCMS/MS Method, Employing Liquid-Liquid Extraction Based on 96-Well Format Plates” (Molecules : A Journal of Synthetic Chemistry and Natural …, 2017)
# What was measured:
# [1] = Pharmacokinetic and bioavailability study in beagle dogs after intravenous and oral administration (plasma, LC-MS/MS); format: in vivo; details: for C0: mean ± SD
# Experimental: All the studies on animals were done in accordance with the Guidelines for the Care and Use of Laboratory Animals. Beagle dogs (~10 kg) were purchased from the Shanghai Slack Experimental Animal Co., Ltd. (Shanghai, China) and acclimated in the laboratory for 1 week prior to the experiments, housed in separate cages under room temperature with a 12 h light/dark cycle, and free access to standard diet and water. All the beagle dogs were fasted for 12 h before the experiments with free access to water.
# For pharmacokinetics study, 24 beagle dogs were randomly divided into four groups (n = 6). Four different dosages (5 mg/kg, 10 mg/kg, 15 mg/kg I.V., 60 mg/kg P.O.) were designed and were assigned randomly to the four groups of beagle dogs. Blood samples (500 μL) were withdrawn from the foreleg vein into heparinized tubes in strict accordance with the time points of the protocol made in advance. Then after centrifuging at 8000 rpm for 10 min, the supernatant plasma sample was transferred into another tube and frozen at −80 °C until analysis. The time points for blood sampling were listed as follows. Pre-dose and subsequently at 0, 0.03, 0.08, 0.17, 0.33, 0.67, 1, 1.5, 2, 3, 4, 6, 8, and 12 h were used for the three intravenous injection groups, and pre-dose, 0.08, 0.17, 0.25, 0.5, 0.75, 1, 1.5, 2, 3, 4, 6, 8, and 12 h were used for the oral administration group.
# For plasma sample preparation, the LLE in 96-well format plate was used. Prior to analysis, all frozen plasma samples, calibration standards, and quality control samples were thawed and allowed to equilibrate at room temperature. The samples were vortexed adequately using a vortex mixer (Beijing Targintech Co. Ltd., Beijing, China) before pipetting. Samples were prepared using LLE in 96-well deep format plate (2 mL, Corning Life Sciences—Axygen Inc., Union City, CA, USA). An automatic multichannel pipette (INTEGRA Biosciences AG, Zizers, Switzerland) was used for liquid transfer steps. Aliquots of 100 μL plasma were transferred into the 96-well deep format plate. Aliquots of 10 μL of IS solution (25 ng/mL) were added to each well except for the well designated for the double blank plasma. Then 20 μL of 2 mol/L hydrochloric acid was added to each well of the plate, and vortexed for 30 s for mixing. The mixed sample was then extracted with 1000 μL methyl tert-butyl ether by vortex-mixing for 3 min in a platform shaker (Grant, Cambridge, UK). After centrifugation at 12,000 rpm for 10 min, 800 μL of the upper organic layer was transferred from the original sample plates into the respective positions of the new 2.0 mL deep 96-well plates. Extracts were concentrated to dryness by an automated concentration evaporation system at 30 °C under a gentle stream of nitrogen (Turbo Vap 96, Biotage AB, Uppsala, Sweden) for 15 min. After drying, the residue was reconstituted with 100 μL of methanol–water (50:50, v/v) and was then vortexed for 3 min and centrifuged for 10 min at 12,000 rpm. A 5 μL aliquot of the supernatant was injected into the LC-MS/MS system for analysis.
# The pharmacokinetic analysis was performed using the non-compartmental model analysis. The concentration versus time data and the pharmacokinetic parameters including Cmax, t1/2, Tmax (h), AUC0-t, AUC0-12, MRT, CL, and Vd were assessed via non-compartmental analysis using the BAPP software (version 2.0, Center of Drug Metabolism and Pharmacokinetics, China Pharmaceutical University, Nanjing, china). The absolute bioavailability (%F) of sodium danshensu was estimated via AUC0→∞ values of oral and intravenous administration.
# [2] = Stability of sodium danshensu in beagle dog plasma (QC samples); format: in vitro ADME; details: for Measured (mean ± SD): n = 3; for long-term stability in plasma (in words): beagle dog plasma stored at −80 °C for 20 days
# Experimental: The analyte stability determinations comprised ambient temperature stability, long-term stability, autosampler stability, and freeze-thaw cycle stability, which were evaluated by analyzing two QC levels in triplicate. The QC samples were analyzed after storage at room temperature for 2 h, at −80 °C for 20 days, and in the autosampler at room temperature for at least 24 h after extraction and after three freeze-thaw cycles, which consisted of storage at −80 °C for a minimum of 12 h followed by thawing at room temperature.
# [3] = dog, plasma, IV 5 mg/kg, beagle dogs
# [4] = dog, plasma, IV 10 mg/kg, beagle dogs
# [5] = dog, plasma, IV 15 mg/kg, beagle dogs
# [6] = dog, plasma, PO 60 mg/kg, beagle dogs
compound,measurement,setting,value
"O=C([O-])[C@H](O)Cc1ccc(O)c(O)c1.[Na+] [sodium danshensu, sodium D-(+)-β-(3,4-dihydroxyphenyl) lactate]",AUC(0-inf),[1]; [3],6870 ± 780 ng·h/mL
same,AUC(0-t),[1]; [3],6710 ± 810 ng·h/mL
same,MRT,[1]; [3],52.8 ± 24.6 min
same,Vd,[1]; [3],6.63 ± 3.49 L
same,clearance,[1]; [3],123 mL/min
same,half-life,[1]; [3],138 ± 73.8 min
same,C0,[1]; [3],36600 ± 3840 ng/mL
same,AUC(0-inf),[1]; [4],8460 ± 430 ng·h/mL
same,AUC(0-t),[1]; [4],8270 ± 380 ng·h/mL
same,MRT,[1]; [4],64.8 ± 31.8 min
same,Vd,[1]; [4],12.8 ± 5.5 L
same,clearance,[1]; [4],197 mL/min
same,half-life,[1]; [4],139 ± 79.8 min
same,C0,[1]; [4],46700 ± 15200 ng/mL
same,AUC(0-inf),[1]; [5],17800 ± 3040 ng·h/mL
same,AUC(0-t),[1]; [5],17800 ± 3030 ng·h/mL
same,MRT,[1]; [5],43.8 ± 3 min
same,Vd,[1]; [5],6.36 ± 1.48 L
same,clearance,[1]; [5],144 mL/min
same,half-life,[1]; [5],98.4 ± 23.4 min
same,C0,[1]; [5],79200 ± 18900 ng/mL
same,AUC(0-inf),[1]; [6],22700 ± 2570 ng·h/mL
same,AUC(0-t),[1]; [6],22200 ± 2480 ng·h/mL
same,Cmax,[1]; [6],7920 ± 1770 ng/mL
same,MRT,[1]; [6],254 ± 12 min
same,Tmax,[1]; [6],2.83 ± 0.41 h
same,half-life,[1]; [6],110 ± 17.4 min
same,bioavailability,"[1]; dog, plasma, beagle dogs, estimated via AUC0→∞ of oral (60 mg/kg) and intravenous administration, read-out: mean absolute bioavailability (%F)",34.8%
same,concentration at 1.5 h,"[1]; one beagle dog plasma sample, 1.5 h after intravenous 10 mg/kg, read-out: assayed plasma concentration",930 ng/mL
same,RE (relative error vs spiked),"[2]; ambient temperature 2 h, spiked 20 ng/mL",5.0%
same,Measured (mean ± SD),"[2]; ambient temperature 2 h, spiked 20 ng/mL, beagle dog plasma",21.00 ± 1.42 ng/mL
same,RE (relative error vs spiked),"[2]; ambient temperature 2 h, spiked 800 ng/mL",−3.6%
same,Measured (mean ± SD),"[2]; ambient temperature 2 h, spiked 800 ng/mL, beagle dog plasma",771.45 ± 23.94 ng/mL
same,Measured (mean ± SD),"[2]; autosampler 24 h (extracted samples), spiked 20 ng/mL",20.10 ± 1.22 ng/mL
same,Measured (mean ± SD),"[2]; autosampler 24 h (extracted samples), spiked 800 ng/mL",772.49 ± 29.64 ng/mL
same,RE (relative error vs spiked),"[2]; autosampler 24 h, spiked 20 ng/mL",0.5%
same,RE (relative error vs spiked),"[2]; autosampler 24 h, spiked 800 ng/mL",−3.4%
same,long-term stability in plasma (in words),[2],stable
same,long-term stability in plasma (in words),[2]; listed as sodiusm danshensu,Excellent stability
same,ambient temperature stability in plasma (in words),"[2]; beagle dog plasma, ambient temperature for 2 h",Excellent stability
same,autosampler stability (in words),[2]; extracted samples kept in the autosampler for 24 h,No degradation
same,RE (relative error vs spiked),"[2]; long-term 20 days at −80 °C, spiked 20 ng/mL",2.5%
same,Measured (mean ± SD),"[2]; long-term 20 days at −80 °C, spiked 20 ng/mL, beagle dog plasma",20.50 ± 1.13 ng/mL
same,RE (relative error vs spiked),"[2]; long-term 20 days at −80 °C, spiked 800 ng/mL",3.1%
same,Measured (mean ± SD),"[2]; long-term 20 days at −80 °C, spiked 800 ng/mL, beagle dog plasma",825.29 ± 55.20 ng/mL
same,"freeze-thaw stability, deviation of the concentration (in words)",[2]; three cycles of freezing and thawing,within the acceptable limit
same,RE (relative error vs spiked),"[2]; three freeze-thaw cycles at −80 °C, spiked 20 ng/mL",7.2%
same,Measured (mean ± SD),"[2]; three freeze-thaw cycles at −80 °C, spiked 20 ng/mL, beagle dog plasma",21.45 ± 0.88 ng/mL
same,RE (relative error vs spiked),"[2]; three freeze-thaw cycles at −80 °C, spiked 800 ng/mL",−0.2%
same,Measured (mean ± SD),"[2]; three freeze-thaw cycles at −80 °C, spiked 800 ng/mL, beagle dog plasma",798.54 ± 47.76 ng/mL
